{"source": "patent US8623904B2", "about": "“Use of tetramic acid derivatives for controlling pests by watering or droplet application” (Bayer CropScience AG, priority 2007, dated 2014)", "key": {"Oidium Iycopersicum": {"test_system": "Oidium Iycopersicum", "assay": "Drench application to tomato plants on rock wool, infection with powdery mildew Oidium Iycopersicum, efficacy by Abbott formula", "format": "in vivo", "conditions": "40 mg of active compound/plant, 240 SC, watered 100 ml; for Efficacy (% Abbott) against Oidium Iycopersicum 14 d: 14 d after infection; for Efficacy (% Abbott) against Oidium Iycopersicum 23 d: 23 d after infection; for Efficacy (% Abbott) against Oidium Iycopersicum 28 d new growth / Efficacy (% Abbott) against Oidium Iycopersicum 28 d old leaves: 28 d after infection", "experimental": "In each case three tomato plants of the cultivar “Hoffmanns Rendita” on rock wool are, in two replications, watered one week after transplantation with in each case 100 ml of active compound solution comprising the active compound (II) (formulation: 240 SC) at the stated application rate. The greenhouse temperature is 20° C. during the day and 17° C. at night. Infection with the powdery mildew Oidium Iycopersicum is in each case carried out two and seven days after the active compound application. Evaluation is in each case carried out 14, 23, 28, 35 days after the respective infection by determining the efficacy on the old leaves and the new growth using the Abbott formula*.\n(§1) Calculation of the efficacy according to Abbott:\n(§2) [formula] where X=value for the control and Y=value for the compound tested"}, "Leveillula taurica": {"test_system": "Leveillula taurica", "assay": "Drench application to bell pepper plants, natural infection with Leveillula taurica, efficacy by Abbott formula", "format": "in vivo", "conditions": "240 SC, watered 50 ml, bell pepper \"Shishitou aoi\", 21 days after treatment", "experimental": "8 plots each 2.25 m^2 in size with bell pepper plants of the cultivar “Shishitou aoi” are, in two replications, watered with 50 ml of an active compound solution comprising the active compound (II) (formulation: 240 SC) at the stated application rate. Following a severe natural infection with Leveillula taurica, evaluation is carried out 21 days after the treatment by determining the efficacy using the Abbott formula*.\nas §1, §2"}}, "data": [{"smiles": "CCOC(=O)OC1=C(c2cc(C)ccc2C)C(=O)N[C@]12CC[C@@H](OC)CC2", "note": "[Active compound (II)]", "values": [{"measurement": "Efficacy (% Abbott) against Oidium Iycopersicum 14 d", "setting": "Oidium Iycopersicum; 2 d prior to infection", "result": 33, "unit": "% Abbott"}, {"measurement": "Efficacy (% Abbott) against Oidium Iycopersicum 23 d", "setting": "Oidium Iycopersicum; 2 d prior to infection", "result": 40, "unit": "% Abbott"}, {"measurement": "Efficacy (% Abbott) against Oidium Iycopersicum 28 d new growth", "setting": "Oidium Iycopersicum; 2 d prior to infection", "result": 65, "unit": "% Abbott"}, {"measurement": "Efficacy (% Abbott) against Oidium Iycopersicum 28 d old leaves", "setting": "Oidium Iycopersicum; 2 d prior to infection", "result": 41, "unit": "% Abbott"}, {"measurement": "Efficacy (% Abbott) against Oidium Iycopersicum 14 d", "setting": "Oidium Iycopersicum; 7 d prior to infection", "result": 45, "unit": "% Abbott"}, {"measurement": "Efficacy (% Abbott) against Oidium Iycopersicum 23 d", "setting": "Oidium Iycopersicum; 7 d prior to infection", "result": 45, "unit": "% Abbott"}, {"measurement": "Efficacy (% Abbott) against Oidium Iycopersicum 28 d new growth", "setting": "Oidium Iycopersicum; 7 d prior to infection", "result": 77, "unit": "% Abbott"}, {"measurement": "Efficacy (% Abbott) against Oidium Iycopersicum 28 d old leaves", "setting": "Oidium Iycopersicum; 7 d prior to infection", "result": 45, "unit": "% Abbott"}, {"measurement": "Efficacy (% Abbott) against Leveillula taurica 21 d", "setting": "Leveillula taurica; 40 mg of active compound/plant", "result": 87.4, "unit": "% Abbott"}, {"measurement": "Efficacy (% Abbott) against Leveillula taurica 21 d", "setting": "Leveillula taurica; 60 mg of active compound/plant", "result": 100, "unit": "% Abbott"}, {"measurement": "Efficacy (% Abbott) against Leveillula taurica 21 d", "setting": "Leveillula taurica; 80 mg of active compound/plant", "result": 100, "unit": "% Abbott"}]}]}
